Source: US12612416B2, “Modulators of cystic fibrosis transmembrane conductance regulator” (VERTEX PHARMACEUTICALS INCORPORATED, priority 2020, dated 2026)
Where two headings read alike, the source gives them in different places.

Assays:
[1] = 13-membered ring
[2] = target: T1, CFTR-mediated chloride transport in human intestinal epithelial enteroid cells (Homo sapiens, UniProt P13569); assay: Membrane potential dye, Enteroid Assay B; type: cell-based; settings: for Ent. B Max Activity: % of chloride transport of triple combination control: 1 μM (14S)-8-[3-(2-{Dispiro[2.0.2.1]heptan-7-yl}ethoxy)-1H-pyrazol-1-yl]-12,12-dimethyl-...-2,2,4-trione, 3 μM tezacaftor, 300 nM acute ivacaftor; for EC50: enteroid cells, 18-24 hours incubation, acute 10 μM forskolin and 300 nM ivacaftor, read-out: Ent. B EC50
T1 sequence (P13569 with tags, fused parts or gaps DEL508-508): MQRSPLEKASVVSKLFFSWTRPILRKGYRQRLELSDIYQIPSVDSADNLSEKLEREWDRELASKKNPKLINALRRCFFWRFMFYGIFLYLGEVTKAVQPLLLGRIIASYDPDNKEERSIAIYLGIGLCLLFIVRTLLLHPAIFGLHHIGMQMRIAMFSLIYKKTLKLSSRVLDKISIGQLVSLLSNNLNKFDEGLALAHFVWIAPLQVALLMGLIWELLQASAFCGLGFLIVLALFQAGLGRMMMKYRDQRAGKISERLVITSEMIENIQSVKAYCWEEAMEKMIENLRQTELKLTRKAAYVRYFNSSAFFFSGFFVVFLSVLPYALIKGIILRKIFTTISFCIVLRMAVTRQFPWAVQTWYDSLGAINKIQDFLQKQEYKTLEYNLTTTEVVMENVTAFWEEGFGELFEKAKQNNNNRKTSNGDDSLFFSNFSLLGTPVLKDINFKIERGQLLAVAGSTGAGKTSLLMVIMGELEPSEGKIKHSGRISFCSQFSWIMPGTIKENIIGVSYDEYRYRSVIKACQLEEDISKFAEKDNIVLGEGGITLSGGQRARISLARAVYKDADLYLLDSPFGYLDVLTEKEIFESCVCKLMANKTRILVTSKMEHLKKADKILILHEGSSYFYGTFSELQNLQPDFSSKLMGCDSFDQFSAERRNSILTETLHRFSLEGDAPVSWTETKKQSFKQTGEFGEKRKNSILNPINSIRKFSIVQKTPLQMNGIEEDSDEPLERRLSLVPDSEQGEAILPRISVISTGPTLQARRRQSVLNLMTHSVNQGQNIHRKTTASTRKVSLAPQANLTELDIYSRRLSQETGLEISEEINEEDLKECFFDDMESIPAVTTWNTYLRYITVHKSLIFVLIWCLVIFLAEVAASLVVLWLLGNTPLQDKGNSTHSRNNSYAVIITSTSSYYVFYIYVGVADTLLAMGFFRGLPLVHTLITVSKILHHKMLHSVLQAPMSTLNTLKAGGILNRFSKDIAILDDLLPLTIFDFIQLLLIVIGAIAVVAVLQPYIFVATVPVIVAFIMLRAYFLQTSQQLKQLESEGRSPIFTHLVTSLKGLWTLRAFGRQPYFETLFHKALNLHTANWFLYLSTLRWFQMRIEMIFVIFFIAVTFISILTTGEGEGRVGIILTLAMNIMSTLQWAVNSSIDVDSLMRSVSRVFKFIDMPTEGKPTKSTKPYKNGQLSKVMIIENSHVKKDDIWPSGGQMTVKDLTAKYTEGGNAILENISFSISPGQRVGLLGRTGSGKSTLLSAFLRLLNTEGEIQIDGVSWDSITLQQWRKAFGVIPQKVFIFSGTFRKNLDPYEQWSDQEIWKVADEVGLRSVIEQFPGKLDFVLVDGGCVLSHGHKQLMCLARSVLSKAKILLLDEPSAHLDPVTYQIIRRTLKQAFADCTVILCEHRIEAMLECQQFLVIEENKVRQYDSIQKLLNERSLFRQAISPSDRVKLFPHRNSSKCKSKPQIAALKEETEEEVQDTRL
Experimental: (§1) Base medium (ADF+++) consisted of Advanced DMEM/Ham's F12, 2 mM Glutamax, 10 mM HEPES, […] penicillin/streptomycin.
(§2) Intestinal enteroid maintenance medium (IEMM) consisted of ADF+++, 1×B27 supplement, 1×N2 supplement, 1.25 mM N-acetyl cysteine, 10 mM Nicotinamide, 50 ng/mL hEGF, 10 nM Gastrin, 1 μg/mL hR-spondin-1, 100 ng/mL hNoggin, TGF-b type 1 inhibitor A-83-01, 100 μg/mL Primocin, 10 μM P38 MAPK inhibitor SB202190.
(§3) Bath 1 Buffer consisted of 1 mM MgCl2, 160 mM NaCl, 4.5 mM KCl, 10 mM HEPES, 10 mM Glucose, 2 mM CaCl2).
(§4) Chloride Free Buffer consisted of 1 mM Magnesium Gluconate, 2 mM Calcium Gluconate, 4.5 mM Potassium Gluconate, 160 mM Sodium Gluconate, 10 mM HEPES, 10 mM Glucose.
(§5) BathI Dye Solution consisted of Bath 1 Buffer, 0.04% Pluronic F127, 20 μM Methyl Oxonol, 30 μM CaCCinh-A01, 30 μM Chicago Sky Blue.
(§6) Chloride Free Dye Solution consisted of Chloride Free Buffer, 0.04% Pluronic F127, 20 μM Methyl Oxonol, 30 μM CaCCinh-A01, 30 μM Chicago Sky Blue.
(§7) Chloride Free Dye Stimulation Solution consisted of Chloride Free Dye Solution, 10 μM forskolin, 100 μM IBMX, and 300 nM Compound III.
(§8) Human intestinal epithelial enteroid cells were obtained from the Hubrecht Institute for Developmental Biology and Stem Cell Research, Utrecht, The Netherlands and expanded in T-Flasks as previously described (Dekkers J F, Wiegerinck C L, de Jonge H R, Bronsveld I, Janssens H M, de Winter-de Groot K M, Brandsma A M, de Jong N W M, Bijvelds M J C, Scholte B J, Nieuwenhuis E E S, van den Brink S, Clevers H, van der Ent C K, Middendorp S and M Beekman J M. A functional CFTR assay using primary cystic fibrosis intestinal organoids. Nat Med. 2013 July; 19(7):939-45.).
(§9) Cells were recovered in cell recovery solution, collected by centrifugation at 650 rpm for 5 minutes at 4° C., resuspended in TrypLE and incubated for 5 minutes at 37° C. Cells were then collected by centrifugation at 650 rpm for 5 minutes at 4° C. and resuspended in IEMM containing 10 μM ROCK inhibitor (RI). The cell suspension was passed through a 40 μm cell strainer and resuspended at 1×10^6 cells/mL in IEMM containing 10 μM RI. Cells were seeded at 5000 cells/well into multi-well plates and incubated for overnight at 37° C., 95% humidity and 5% CO2 prior to assay.
(§10) Enteroid cells were incubated with test compound in IEMM for 18-24 hours at 37° C., 95% humidity, and 5% C02. […] Briefly, cells were washed 5 times in Bath 1 Buffer. Bath 1 Dye Solution was added and the cells were incubated for 25 minutes at room temperature. Following dye incubation, cells were washed 3 times in Chloride Free Dye Solution. Chloride transport was initiated by addition of Chloride Free Dye Stimulation Solution and the fluorescence signal was read for 15 minutes. […] Chloride transport was then expressed as a percentage of the chloride transport following treatment with 1 μM (14S)-8-[3-(2-{Dispiro[2.0.2.1]heptan-7-yl}ethoxy)-1H-pyrazol-1-yl]-12,12-dimethyl-2λ^6-thia-3,9,11,18,23-pentaazatetracyclo[17.3.1.111,14.05,10]tetracosa-1(22),5,7,9,19(23),20-hexaene-2,2,4-trione, 3 μM (R)-1-(2,2-difluorobenzo[d][1,3]dioxol-5-yl)-N-(1-(2,3-dihydroxypropyl)-6-fluoro-2-(1-hydroxy-2-methylpropan-2-yl)-1H-indol-5-yl)cyclopropanecarboxamide and 300 nM acute N-[2,4-bis(1,1-dimethylethyl)-5-hydroxyphenyl]-1,4-dihydro-4-oxoquinoline-3-carboxamide triple combination control (% Activity).

[3] = target: T1, CFTR-mediated chloride transport in human intestinal epithelial enteroid cells; assay: Membrane potential dye, Enteroid Assay A; type: cell-based; settings: for Ent. A Max Activity: % of chloride transport of triple combination control: 3 μM (S)-N-((6-aminopyridin-2-yl)sulfonyl)-6-(3-fluoro-5-isobutoxyphenyl)-2-(2,2,4-trimethylpyrrolidin-1-yl)nicotinamide, 3 μM tezacaftor, 300 nM acute ivacaftor; for EC50: enteroid cells, 18-24 hours incubation, acute 10 μM forskolin and 300 nM ivacaftor, read-out: Ent. A EC50
Experimental: as §1, §2, §3, §4, §5, §6, §7, §8, §9
as §10, with “95% humidity” for “95% humidity,”, “was added,” for “was added”, “with 3” for “with 1”, “μM (S)—N-((6-aminopyridin-2-yl)sulfonyl)-6-(3-fluoro-5-isobutoxyphenyl)-2-(2,2,4-trimethylpyrrolidin-1-yl)nicotinamide,” for “μM (14S)-8-[3-(2-{Dispiro[2.0.2.1]heptan-7-yl}ethoxy)-1H-pyrazol-1-yl]-12,12-dimethyl-2λ^6-thia-3,9,11,18,23-pentaazatetracyclo[17.3.1.111,14.05,10]tetracosa-1(22),5,7,9,19(23),20-hexaene-2,2,4-trione,”

Cc1cccc(C)c1-c1cc2nc(n1)NS(=O)(=O)c1cccc(c1)C(=O)N(C1CC3(CC3)C1)[C@H](CC(C)C)CC2 [Compound 6, (11S)-6-(2,6-Dimethylphenyl)-11-isobutyl-2,2-dioxo-12-spiro[2.3]hexan-5-yl-2 λ6-thia-3,5,12,19-tetrazatricyclo[12.3.1.14,8]nonadeca-1(18),4(19),5,7,14,16-hexaen-13-one]
ring closure, yield after HPLC ([1]; from Cc1cccc(C)c1-c1cc(CC[C@@H](CC(C)C)NC2CC3(CC3)C2)nc(NS(=O)(=O)c2cccc(C(=O)O)c2)n1, amide bond, HATU/DIEA, NMP, 126.6 mM, 25.0 °C, 2.0 h): 50%
Ent. B Max Activity [2]: +++ (+++ is >60%)
EC50 [2]: < 1000 nM

Cc1cccc(C)c1-c1cc2nc(n1)NS(=O)(=O)c1cccc(c1)C(=O)N(C1CC3(CC3)C1)[C@H](CC1(C(F)(F)F)CC1)CC2 [Compound 7, (11S)-6-(2,6-Dimethylphenyl)-2,2-dioxo-12-spiro[2.3]hexan-5-yl-11-[[1-(trifluoromethyl)cyclopropyl]methyl]-2 λ6-thia-3,5,12,19-tetrazatricyclo [12.3.1.14,8]nonadeca-1(18),4(19),5,7,14,16-hexaen-13-one]
ring closure, yield after HPLC ([1]; from Cc1cccc(C)c1-c1cc(CC[C@@H](CC2(C(F)(F)F)CC2)NC2CC3(CC3)C2)nc(NS(=O)(=O)c2cccc(C(=O)O)c2)n1, amide bond, HATU/DIEA, NMP, 26.8 mM, 25.0 °C, 16.0 h): 22%
Ent. B Max Activity [2]: +++ (+++ is >60%)
EC50 [2]: < 1000 nM

Cc1cccc(C)c1-c1cc2nc(n1)NS(=O)(=O)c1cccc(c1)C(=O)N(C1CC3(CC3)C1)CCC2C (centres unmarked) [Compound 11, 6-(2,6-dimethylphenyl)-9-methyl-2,2-dioxo-12-spiro[2.3]hexan-5-yl-2λ^6-thia-3,5,12,19-tetrazatricyclo[12.3.1.14,8]nonadeca-1(18),4(19),5,7,14,16-hexaen-13-one]
ring closure, yield after HPLC ([1]; from Cc1cccc(C)c1-c1cc(C(C)CCNC2CC3(CC3)C2)nc(NS(=O)(=O)c2cccc(C(=O)O)c2)n1, amide bond, HATU/DIEA, NMP, 20.1 mM, 25.0 °C, 16.0 h): 86%
Ent. B Max Activity [2]: +++ (+++ is >60%)
EC50 [2]: 1000 to 3000 nM

Cc1cccc(C)c1-c1nc2nc(c1C)NCCOC(=O)c1cccc(c1)S(=O)(=O)N2 [Compound 24, 6-(2,6-dimethylphenyl)-7-methyl-12-oxa-2 λ6-thia-3,5,9,19-tetraazatricyclo[12.3.1.14,8]nonadeca-1(18),4,6,8(19),14,16-hexaene-2,2,13-trione]
ring closure, yield after HPLC ([1]; from Cc1cccc(C)c1-c1nc(NS(=O)(=O)c2cccc(C(=O)O)c2)nc(OCCN)c1C, ester bond, HATU/DIEA, DMF, 50.7 mM, 25.0 °C): 23%
Ent. B Max Activity [2]: + (+ is <30%)

Cc1cccc(C)c1-c1cc2nc(n1)NS(=O)(=O)c1cccc(c1)C(=O)OCC(CCC1(C(F)(F)F)CC1)N2CCC1CCOCC1 (centres unmarked) [Compound 26, 6-(2,6-dimethylphenyl)-2,2-dioxo-9-(2-tetrahydropyran-4-ylethyl)-10-[2-[1-(trifluoromethyl)cyclopropyl]ethyl]-12-oxa-2λ6-thia-3,5,9,19-tetrazatricyclo[12.3.1.14,8]nonadeca-1(18),4(19),5,7,14,16-hexaen-13-one]
Ent. A Max Activity [3]: +++ (+++ is >60%)
EC50 [3]: 1000 to 3000 nM

Cc1cccc(C)c1-c1cc2nc(n1)NS(=O)(=O)c1ccccc1C(=O)O[C@H](c1ccc(C(C)(C)C)cc1)[C@@H](C)N2 [Compound 27]
Ent. A Max Activity [3]: + (+ is <30%)

Cc1cccc(C)c1-c1cc2nc(n1)NS(=O)(=O)c1cccc(c1)C(=O)OCC[C@H](c1ccccc1)N2 [Compound 28]
Ent. A Max Activity [3]: ++ (++ is 30-60%)
EC50 [3]: 1000 to 3000 nM

Cc1cccc(C)c1-c1cc2nc(n1)NS(=O)(=O)c1cccc(c1)C(=O)OCC(CCC1(C(F)(F)F)CC1)N2CCC(C)C (centres unmarked) [Compound 30]
Ent. A Max Activity [3]: + (+ is <30%)

Cc1cccc(C)c1-c1cc2nc(n1)NS(=O)(=O)c1cccc(c1)C(=O)OCC(CCC1(C(F)(F)F)CC1)N2Cc1ccccc1 (centres unmarked) [Compound 31]
Ent. A Max Activity [3]: ++ (++ is 30-60%)
EC50 [3]: 1000 to 3000 nM

Cc1cccc(C)c1-c1cc2nc(n1)NS(=O)(=O)c1cccc(c1)C(=O)OCC[C@@H](c1ccccc1)N2 [Compound 33]
Ent. A Max Activity [3]: +++ (+++ is >60%)
EC50 [3]: 1000 to 3000 nM

Cc1cccc(C)c1-c1cc2nc(n1)NS(=O)(=O)c1cccc(c1)C(=O)OCC(C)(C)CN2 [Compound 34]
Ent. A Max Activity [3]: + (+ is <30%)

Cc1cccc(C)c1-c1cc2nc(n1)NS(=O)(=O)c1cccc(c1)C(=O)O[C@@H](C)[C@@H](CC(C)C)N2 [Compound 36]
Ent. A Max Activity [3]: + (+ is <30%)

Cc1cccc(C)c1-c1cc2nc(n1)NS(=O)(=O)c1cccc(c1)C(=O)NC(CC(C)C)CN2 (centres unmarked) [Compound 37, 6-(2,6-Dimethylphenyl)-11-isobutyl-2,2-dioxo-2 λ6-thia-3,5,9,12,19-pentazatricyclo[12.3.1.14,8]nonadeca-1(18),4(19),5,7,14,16-hexaen-13-one]
ring closure, yield after HPLC ([1]; from Cc1cccc(C)c1-c1cc(NCC(N)CC(C)C)nc(NS(=O)(=O)c2cccc(C(=O)O)c2)n1, amide bond, HATU/Et3N, DMF, 50.6 mM, 0.5 h): 67%
Ent. A Max Activity [3]: + (+ is <30%)

Cc1cccc(C)c1-c1cc2nc(n1)NS(=O)(=O)c1cccc(c1)C(=O)N[C@H](C)CN2Cc1ccccc1 [Compound 38, (11R)-9-benzyl-6-(2,6-dimethylphenyl)-11-methyl-2,2-dioxo-2λ6-thia-3,5,9,12,19-pentazatricyclo[12.3.1.14,8]nonadeca-1(18),4(19),5,7,14,16-hexaen-13-one]
ring closure, yield after HPLC ([1]; from Cc1cccc(C)c1-c1cc(N(Cc2ccccc2)C[C@@H](C)N)nc(NS(=O)(=O)c2cccc(C(=O)O)c2)n1, amide bond, HATU/Et3N, DMF, 44.7 mM, 25.0 °C, 16.0 h): 23%
Ent. A Max Activity [3]: + (+ is <30%)

Cc1cccc(C)c1-c1cc2nc(n1)NS(=O)(=O)c1cccc(c1)C(=O)NCCN2CC(C)C [Compound 39, 6-(2,6-Dimethylphenyl)-9-isobutyl-2,2-dioxo-2 λ6-thia-3,5,9,12,19-pentazatricyclo[12.3.1.14,8]nonadeca-1(18),4(19),5,7,14,16-hexaen-13-one]
ring closure, yield after HPLC ([1]; from Cc1cccc(C)c1-c1cc(N(CCN)CC(C)C)nc(NS(=O)(=O)c2cccc(C(=O)O)c2)n1, amide bond, HATU/Et3N, DMF, 25.3 mM, 25.0 °C, 0.5 h): 35%
Ent. A Max Activity [3]: + (+ is <30%)
